According to publication PMC5063058, “Cephalosporins inhibit human metallo β-lactamase fold DNA repair nucleases SNM1A and SNM1B/apollo” (Chemical Communications (Cambridge, England), 2016):

Assays:
[1] = real-time fluorescence nuclease assay (fluorescein/BHQ1 20-nt ssDNA); format: biochemical, Homo sapiens; settings: read-out: IC50 SNM1A ^a /μM
From the text: (§1) real-time fluorescence nuclease assay (fluorescein/BHQ1 20-nt ssDNA) on SNM1B

[2] = biological target: T1, SNM1A (Homo sapiens, UniProt Q6PJP8); experiment: as above; format: biochemical
T1 construct: gene DCLRE1A; 5'-3' exonuclease with MBL and beta-CASP domains
T1 sequence (Q6PJP8 700-1040): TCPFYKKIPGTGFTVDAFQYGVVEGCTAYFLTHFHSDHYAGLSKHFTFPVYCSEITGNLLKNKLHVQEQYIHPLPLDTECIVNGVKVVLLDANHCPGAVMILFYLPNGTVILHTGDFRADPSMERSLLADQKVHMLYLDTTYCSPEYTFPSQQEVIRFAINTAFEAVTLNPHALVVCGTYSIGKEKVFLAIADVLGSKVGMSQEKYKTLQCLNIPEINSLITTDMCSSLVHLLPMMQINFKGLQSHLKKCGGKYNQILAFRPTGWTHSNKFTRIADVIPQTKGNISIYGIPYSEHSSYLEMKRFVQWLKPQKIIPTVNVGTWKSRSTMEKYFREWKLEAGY
From the text: real-time fluorescence nuclease assay (fluorescein/BHQ1 20-nt ssDNA) on SNM1A

[3] = biological target: T2, SNM1B (Homo sapiens, UniProt Q9H816); experiment: as above; format: biochemical
T2 construct: gene DCLRE1B; 5'-3' exonuclease with MBL and beta-CASP domains
T2 sequence (Q9H816 1-335): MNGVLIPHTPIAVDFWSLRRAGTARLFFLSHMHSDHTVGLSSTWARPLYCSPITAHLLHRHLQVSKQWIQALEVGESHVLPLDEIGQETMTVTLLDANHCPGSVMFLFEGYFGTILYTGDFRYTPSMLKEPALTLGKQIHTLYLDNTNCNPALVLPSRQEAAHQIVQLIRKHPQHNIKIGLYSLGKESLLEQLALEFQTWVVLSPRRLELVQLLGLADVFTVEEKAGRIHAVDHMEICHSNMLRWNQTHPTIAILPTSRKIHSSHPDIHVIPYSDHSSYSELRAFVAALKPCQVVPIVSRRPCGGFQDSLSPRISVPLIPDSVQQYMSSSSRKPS
From the text: as §1

[4] = biological target: T1, SNM1A; experiment: quantitative 1H NMR binding assay

SMILES	IC50 [1] [µM]	IC50 [2] [µM]	Kd [4] [µM]	IC50 [3] [µM]
CC(C)(O/N=C(\C(=O)N[C@@H]1C(=O)N2C(C(=O)[O-])=C(C[n+]3ccccc3)CS[C@H]12)c1csc(N)n1)C(=O)O [Ceftazidime]	> 500	> 500	–	–
CC(=O)OCC1=C(C(=O)O)N2C(=O)[C@@H](N)[C@H]2SC1 [compound 1, 7-ACA]	–	7 ± 1	–	32 ± 10
CC(=O)OCC1=C(C(=O)O)N2C(=O)[C@@H](NC(=O)CCC[C@@H](N)C(=O)O)[C@H]2SC1 [compound 2, Cephalosporin C]	–	61 ± 27	–	> 500

Continued, in another order:

IC50 [1] [µM]	IC50 [2] [µM]	Kd [4] [µM]	SMILES	IC50 [3] [µM]
–	5 ± 2	–	CO/N=C(\C(=O)N[C@@H]1C(=O)N2C(C(=O)O)=C(COC(C)=O)CS[C@H]12)c1csc(N)n1 [compound 3, Cefotaxime]	129 ± 20
–	4 ± 2	19 ± 4	CO/N=C(\C(=O)N[C@@H]1C(=O)N2C(C(=O)O)=C(CSc3nc(=O)c(=O)[nH]n3C)CS[C@H]12)c1csc(N)n1 [compound 4, Ceftriaxone]	40 ± 14
